Reference: US20240228469A1, “PCSK9 INHIBITORS AND METHODS OF USE THEREOF” (AstraZeneca AB, priority 2022, published 2024)
pIC50, pKd: −log10 of the molar value.

Legend:
PCSK9 [1] = biological target: T1, PCSK9 (Homo sapiens, UniProt Q8NBP7); assay: Assay 2 Biophysical human PCSK9 assay (SPR, Biacore); format: binding; set-up: biotinylated human PCSK9 (31-692)-Avi-His6; His6 (C); conditions: single-cycle kinetics, 30° C., geometric mean, read-out: Assay 2 (PCSK9 BIAcore DBA Cr) GMean Kd
Method: The SPR binding experiments were performed on a Biacore S200 optical biosensor unit at 30° C. A Series S Sensor Chip SA that is designed to bind biotinylated molecules for interaction analysis in Biacore systems was equilibrated at room temperature prior to use. The running buffer for protein tethering and subsequent ligand binding experiments was 10 mM HEPES pH 7.4, 150 mM NaCl, 0.05% (v/v) Tween 20 pH 7.4.
For the surface tethering of PCSK9, biotinylated human PCSK9 (31-692)-Avi-His6 at a concentration of 0.5 mg/mL was used. Prior to the surface tethering, the surface was exposed to a solution of 50 mM NaOH, 500 mM NaCl via 3 consecutive injections of this solution with a contact time of 60 s and a flowrate of 10 μL min^−1 to remove non-conjugated streptavidin. The PCSK9 protein was diluted to a concentration of 20 μg/mL using running buffer and injected with a contact time of 180-300 s and a flowrate of 10 μL min^−1 over a single flow channel (typically flow channel 2 or flow channel 4) with the aim to achieve protein capture levels of >5000 response units (RU). Remaining biotin binding sites were blocked via 2 consecutive injections of a 10 μM D-biotin solution in running buffer with a contact time of 60 s and a flowrate of 10 μL min^−1 over all flow-channels. Flow-channels 1 and 3 typically served as a reference surface throughout the subsequent binding experiments.
The binding experiments were all performed at a flow rate of 30 PL min^−1 and by employing the method of single-cycle kinetics. This approach involves the sequential injection of a compound concentration series without regeneration steps. A contact time between 90-150 s was selected, which was followed by a 40 min dissociation phase to allow for a proper estimation of the dissociation rate constant. Test compounds were delivered in DMSO at a concentration of 10 mM and a digital dispenser HP D300 was used to set up the compound concentration series using 6 concentrations. The tested concentrations have been 30, 100, 300, 1000, 3000 and 10000 nM. Prior to injecting any compound, the surfaces were equilibrated by injecting running buffer over them in three separate pulses. The data collection rate was set to 10 Hz.
The raw sensorgrams of the compound injections were first subjected to reference subtraction (subtracting the signal from flow channel 1 and/or 3 from the signal from channels 2 and/or 4 respectively) and then blank subtraction (subtracting the signal from injecting DMSO controls from the reference subtracted data). The resulting double-referenced sensorgrams were then fitted using a 1:1 binding interaction model using the manufactures software package to extract kinetic- and affinity data. Active compounds have been defined by creating a detectable binding signal at the highest compound concentration ([…]) of 3 RUs. Kinetic- and affinity data on active compounds are only provided for those compounds where the binding signal at the highest compound concentration ([…]) is 50% of the theoretical maximum binding signal for a 1:1 binding interaction (Rmax, typically between 15-20 RUs) in order to enable a proper fitting of the data.
Target sequence in this assay (Q8NBP7 31-692): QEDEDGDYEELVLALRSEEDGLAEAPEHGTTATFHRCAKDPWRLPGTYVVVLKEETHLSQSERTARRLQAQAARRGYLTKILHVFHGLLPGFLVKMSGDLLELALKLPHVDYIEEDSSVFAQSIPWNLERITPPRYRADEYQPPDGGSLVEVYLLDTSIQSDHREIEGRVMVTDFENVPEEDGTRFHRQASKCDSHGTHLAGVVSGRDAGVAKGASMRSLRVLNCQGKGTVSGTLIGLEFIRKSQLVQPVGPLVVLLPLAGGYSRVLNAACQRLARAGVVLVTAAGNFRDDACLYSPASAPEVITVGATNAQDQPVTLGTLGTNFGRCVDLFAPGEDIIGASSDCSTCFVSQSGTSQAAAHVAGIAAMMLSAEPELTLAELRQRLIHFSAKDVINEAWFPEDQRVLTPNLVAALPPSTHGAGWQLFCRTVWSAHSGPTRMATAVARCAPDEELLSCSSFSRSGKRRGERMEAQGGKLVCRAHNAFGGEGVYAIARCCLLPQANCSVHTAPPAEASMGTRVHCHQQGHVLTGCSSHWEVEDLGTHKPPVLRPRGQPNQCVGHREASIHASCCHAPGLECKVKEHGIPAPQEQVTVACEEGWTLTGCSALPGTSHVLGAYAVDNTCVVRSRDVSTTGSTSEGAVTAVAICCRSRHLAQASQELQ

PCSK9 [2] = biological target: PCSK9 (Homo sapiens, UniProt Q8NBP7, G670E/V474I); assay: biochemical
[3] = biological target: T2, potassium ion channel hERG (Homo sapiens, UniProt Q12809); assay: Assay 5 hERG assay (patch clamp, CHO cells over-expressing hERG); format: cell-based; conditions: SyncroPatch 384PE, room temperature, geometric mean, read-out: Assay 5 (hERG Hu CHO if EPh CR-Syncro) GMean IC50
T2 construct: expressed in transfected cells; host or cells: Chinese hamster ovary K1 (CHO)
Method in brief: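 hERG currents recorded by automated patch clamp at room temperature in CHO-K1 cells, 6-point cumulative concentrations. SyncroPatch runs used KF-based internal (pH 7.2) and NMDG-containing external solution (pH 7.4), 0.33% DMSO; QPatchII runs used 2% or 0.4% DMSO. Only wells meeting seal-resistance and current-size criteria kept.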

[4] = biological target: GSK3β (Glycogen synthase kinase-3 beta) (Homo sapiens, UniProt P49841); assay: Assay 6 GSK3β assay (ThermoFisher Z-Lyte FRET); format: biochemical; conditions: ATP Conc: 10 μM, geometric mean; read-out: Assay 6 (GSK3β FRET-Z-Lyte Cr) GMean IC50
Method in brief: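 Z-Lyte FRET: 0.22-0.92 ng kinase with 2 μM Ser/Thr 09 peptide in HEPES pH 7.5, MgCl2, EGTA, 60 min at room temperature, then 60 min development. Compounds in 1% DMSO, 10-point 3-fold series from 10 μM; sigmoidal dose-response fit.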

PCSK9 [5] = biological target: T1, PCSK9; set-up: host or cells: patients; conditions: clinical trials, patients; alirocumab compared to placebo; cited from earlier work
Target sequence in this assay (Q8NBP7 153-692): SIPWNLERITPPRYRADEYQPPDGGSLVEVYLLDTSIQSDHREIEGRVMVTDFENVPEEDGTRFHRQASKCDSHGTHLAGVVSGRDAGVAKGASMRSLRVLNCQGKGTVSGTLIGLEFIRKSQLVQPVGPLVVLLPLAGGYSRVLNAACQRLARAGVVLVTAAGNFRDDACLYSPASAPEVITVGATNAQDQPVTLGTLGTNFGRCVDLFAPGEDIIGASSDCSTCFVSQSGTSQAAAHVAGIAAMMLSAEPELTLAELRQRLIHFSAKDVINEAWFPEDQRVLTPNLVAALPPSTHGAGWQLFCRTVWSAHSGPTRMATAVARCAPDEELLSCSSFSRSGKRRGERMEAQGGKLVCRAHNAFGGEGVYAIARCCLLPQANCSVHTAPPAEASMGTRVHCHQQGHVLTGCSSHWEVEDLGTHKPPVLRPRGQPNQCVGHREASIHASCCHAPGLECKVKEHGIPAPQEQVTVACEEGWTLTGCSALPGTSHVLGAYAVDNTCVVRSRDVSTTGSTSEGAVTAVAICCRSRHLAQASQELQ

T2 sequence (Q12809 whole entry): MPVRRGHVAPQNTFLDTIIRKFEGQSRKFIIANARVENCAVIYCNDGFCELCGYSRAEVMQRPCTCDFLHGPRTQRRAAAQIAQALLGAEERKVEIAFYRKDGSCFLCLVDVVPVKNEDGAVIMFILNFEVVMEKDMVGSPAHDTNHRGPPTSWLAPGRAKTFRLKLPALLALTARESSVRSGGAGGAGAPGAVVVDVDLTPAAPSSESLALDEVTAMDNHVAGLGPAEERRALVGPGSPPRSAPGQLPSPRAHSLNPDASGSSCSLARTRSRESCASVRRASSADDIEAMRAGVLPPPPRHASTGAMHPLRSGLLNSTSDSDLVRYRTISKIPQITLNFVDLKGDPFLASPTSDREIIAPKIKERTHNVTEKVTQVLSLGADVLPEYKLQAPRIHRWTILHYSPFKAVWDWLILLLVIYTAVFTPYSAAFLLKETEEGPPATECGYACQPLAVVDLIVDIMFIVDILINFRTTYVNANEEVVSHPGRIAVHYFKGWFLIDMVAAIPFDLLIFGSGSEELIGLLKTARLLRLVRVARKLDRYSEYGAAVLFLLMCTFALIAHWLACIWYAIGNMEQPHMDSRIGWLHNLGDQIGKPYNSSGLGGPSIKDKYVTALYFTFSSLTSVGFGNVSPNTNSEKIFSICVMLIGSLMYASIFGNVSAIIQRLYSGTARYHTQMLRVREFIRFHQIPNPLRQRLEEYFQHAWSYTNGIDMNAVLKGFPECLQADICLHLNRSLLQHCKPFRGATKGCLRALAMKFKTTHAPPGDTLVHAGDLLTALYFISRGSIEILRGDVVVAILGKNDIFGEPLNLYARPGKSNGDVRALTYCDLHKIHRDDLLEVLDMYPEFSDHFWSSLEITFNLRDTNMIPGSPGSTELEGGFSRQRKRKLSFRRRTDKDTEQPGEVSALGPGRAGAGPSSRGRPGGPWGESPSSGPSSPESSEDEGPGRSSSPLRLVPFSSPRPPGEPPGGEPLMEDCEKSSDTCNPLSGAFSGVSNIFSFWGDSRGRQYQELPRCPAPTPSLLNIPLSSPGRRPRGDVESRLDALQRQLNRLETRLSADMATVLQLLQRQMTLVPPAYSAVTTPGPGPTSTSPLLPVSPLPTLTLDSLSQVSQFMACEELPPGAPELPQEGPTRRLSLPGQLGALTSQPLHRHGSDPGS
Sequence of PCSK9 (Homo sapiens, UniProt Q8NBP7, G670E/V474I) (Q8NBP7 with tags, fused parts or gaps V474I/G670E): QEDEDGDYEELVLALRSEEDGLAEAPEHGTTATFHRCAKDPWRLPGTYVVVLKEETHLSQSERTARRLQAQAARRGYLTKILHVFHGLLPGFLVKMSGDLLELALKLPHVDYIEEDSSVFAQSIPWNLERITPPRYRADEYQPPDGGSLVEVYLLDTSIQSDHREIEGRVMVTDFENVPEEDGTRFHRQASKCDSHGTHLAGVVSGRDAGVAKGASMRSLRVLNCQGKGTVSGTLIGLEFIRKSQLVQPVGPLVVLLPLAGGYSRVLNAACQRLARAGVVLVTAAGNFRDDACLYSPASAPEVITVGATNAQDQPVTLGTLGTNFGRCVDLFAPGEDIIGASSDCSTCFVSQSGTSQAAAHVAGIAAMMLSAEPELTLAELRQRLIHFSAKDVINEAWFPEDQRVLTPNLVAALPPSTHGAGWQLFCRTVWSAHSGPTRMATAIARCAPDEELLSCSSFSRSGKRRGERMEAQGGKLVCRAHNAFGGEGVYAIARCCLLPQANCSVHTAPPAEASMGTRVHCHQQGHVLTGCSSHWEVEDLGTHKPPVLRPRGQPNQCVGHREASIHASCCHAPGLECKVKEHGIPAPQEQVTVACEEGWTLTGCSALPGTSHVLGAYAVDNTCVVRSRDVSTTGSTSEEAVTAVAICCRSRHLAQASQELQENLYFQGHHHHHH
Sequence of GSK3β (Glycogen synthase kinase-3 beta) (P49841 whole entry): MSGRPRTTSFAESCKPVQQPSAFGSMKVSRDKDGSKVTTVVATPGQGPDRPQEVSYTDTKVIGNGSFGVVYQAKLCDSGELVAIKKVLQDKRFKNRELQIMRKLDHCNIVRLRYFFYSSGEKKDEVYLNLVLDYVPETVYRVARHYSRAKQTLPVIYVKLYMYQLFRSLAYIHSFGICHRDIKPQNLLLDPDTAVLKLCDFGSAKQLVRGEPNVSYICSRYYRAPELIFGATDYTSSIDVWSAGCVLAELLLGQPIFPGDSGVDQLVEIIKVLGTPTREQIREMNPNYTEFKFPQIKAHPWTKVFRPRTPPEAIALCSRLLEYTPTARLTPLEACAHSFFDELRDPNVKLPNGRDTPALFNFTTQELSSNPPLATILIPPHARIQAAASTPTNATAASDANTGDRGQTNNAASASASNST

Row | Compound | pKd (PCSK9 [1]) | pIC50 (PCSK9 [2]) | pIC50 [3] | pIC50 [4] | decrease in LDL levels (PCSK9 [5])
1 | O=C(NCC(F)F)c1cnc(N[C@H]2CC[C@H](Nc3ccc(-n4ccccc4=O)cn3)C2)nn1 [Example 71, N-(2,2-Difluoroethyl)-3-(((1S,3S)-3-((2-oxo-2H-[1,3′-bipyridin]-6′-yl)amino)cyclopentyl)amino)-1,2,4-triazine-6-carboxamide] | 7.20 | 7.34 | < 4.40 | < 5.00 | –
2 | O=C(NCCO)c1cnc(N[C@H]2CC[C@H](Nc3ccc(-n4ccccc4=O)cn3)C2)nn1 [Example 72, N-(2-Hydroxyethyl)-3-(((1S,3S)-3-((2-oxo-2H-[1,3′-bipyridin]-6′-yl)amino)cyclopentyl)amino)-1,2,4-triazine-6-carboxamide] | 6.77 | 6.69 | < 4.40 | < 5.00 | –
3 | CCNC(=O)c1cnc(N[C@H]2CC[C@H](Nc3ccc(-n4ccccc4=O)cn3)C2)nn1 [Example 73, N-Ethyl-3-(((1S,3S)-3-((2-oxo-2H-[1,3′-bipyridin]-6′-yl)amino)cyclopentyl)amino)-1,2,4-triazine-6-carboxamide] | 7.32 | 7.12 | < 4.40 | < 5.00 | –
4 | NC(=O)c1cnc(N[C@H]2CC[C@H](Nc3ccc(-n4ccccc4=O)cn3)C2)nn1 [Example 74, 3-(((1S,3S)-3-((2-Oxo-2H-[1,3′-bipyridin]-6′-yl)amino)cyclopentyl)amino)-1,2,4-triazine-6-carboxamide] | 7.10 | 7.07 | < 4.40 | 5.08 | –
5 | CN(C)C(=O)c1cnc(N[C@H]2CC[C@H](Nc3ccc(-n4ccccc4=O)cn3)C2)nn1 [Example 76, N,N-Dimethyl-3-(((1S,3S)-3-((2-oxo-2H-[1,3′-bipyridin]-6′-yl)amino)cyclopentyl)amino)-1,2,4-triazine-6-carboxamide] | 6.90 | 6.31 | < 4.40 | < 5.00 | –
6 | Cc1cnnc(N[C@H]2CC[C@H](Nc3ccc(-n4ccccc4=O)cn3)C2)n1 [Example 126, 6′-(((1S,3S)-3-((5-Methyl-1,2,4-triazin-3-yl)amino)cyclopentyl)amino)-2H-[1,3′-bipyridin]-2-one] | 6.02 | 6.13 | < 4.40 | < 5.00 | –
7 | Cc1nnc(N[C@H]2CC[C@H](Nc3ccc(-n4ccccc4=O)cn3)C2)nc1C [Example 127, 6′-(((1S,3S)-3-((5,6-Dimethyl-1,2,4-triazin-3-yl)amino)cyclopentyl)amino)-2H-[1,3′-bipyridin]-2-one] | 6.61 | 6.71 | < 4.40 | < 5.00 | –
8 | Cc1cnc(N[C@H]2CC[C@H](Nc3ccc(-n4ncc5cccnc54)cn3)C2)nn1 [Example 310, (1S,3S)—N′-(5-(1H-Pyrazolo[3,4-b]pyridin-1-yl)pyridin-2-yl)-N^3-(6-methyl-1,2,4-triazin-3-yl)cyclopentane-1,3-diamine] | 7.72 | 7.66 | 4.46 | < 5.00 | –
9 | Cc1cnc(N[C@H]2CC[C@H](Nc3ccc(-n4ncc5ccccc54)cn3)C2)nn1 [Example 311, (1S,3S)—N′-(5-(1H-Indazol-1-yl)pyridin-2-yl)-N^3-(6-methyl-1,2,4-triazin-3-yl)cyclopentane-1,3-diamine] | 8.16 | 8.26 | 5.12 | < 5.00 | –
10 | alirocumab | – | – | – | – | about 50%
